Measured values: patent US8962616B2, “Heterocyclic substituted hexahydropyrano[3,4-d][1,3]thiazin-2-amine compounds” (Pfizer Inc., priority 2012, dated 2015)

Experiments:
BACE1 enzyme = BACE1 enzyme (Homo sapiens (Human), UniProt P56817); experiment: BACE1 Cell-Free Assay (fluorescence polarization, synthetic APP substrate); type: biochemical; conditions: geometric mean of 2-7 determinations (values marked b: single determination)
Source text: This assay measures the inhibition of the beta-secretase enzyme as it cleaves a non-native peptide.
A synthetic APP substrate that can be cleaved by beta-secretase having N-terminal biotin and made fluorescent by the covalent attachment of Oregon Green at the Cys residue is used to assay beta-secretase activity in the presence or absence of the inhibitory compounds. […] The BACE1 enzyme is affinity purified material from conditioned media of CHO-K1 cells that have been transfected with a soluble BACE construct (BACE1deltaTM96His). Compounds are incubated in a ½ log dose response curve from a top concentration of 100 μM with BACE1 enzyme and the biotinylated fluorescent peptide in 384-well black plates (Thermo Scientific #4318). BACE1 is at a final concentration of 0.1 nM with a final concentration of peptide substrate of 150 nM in a reaction volume of 30 μL assay buffer (100 mM sodium acetate, pH 4.5 (brought to pH with acetic acid), and 0.001% Tween-20). Plates are covered and incubated for 3 hours at 37° C. The reaction is stopped with the addition of 30 μL of 1.5 μM Streptavidin (Pierce, #21125). After a 10 minute incubation at room temperature, plates are read on a PerkinElmer Envision for fluorescent polarization (Ex485 nm/Em530 nm). The activity of the beta-secretase enzyme is detected by changes in the fluorescence polarization that occur when the substrate is cleaved by the enzyme.

[1] = tested on: H4 human neuroglioma cells over-expressing the wild-type human APP695; experiment: sAPPβ Whole-Cell Assay (in vitro sAPPb assay, ELISA); type: cell-based; conditions: 18 hours, geometric mean of 2-7 determinations (values marked b: single determination)
Method: Whole Cell-Free Assay (In Vitro sAPPb Assay):
H4 human neuroglioma cells over-expressing the wild-type human APP695 are treated for 18 hours with compound in a final concentration 1% DMSO. sAPPβ levels are measured using TMB-ELISA with capture APP N-terminal antibody (Affinity BioReagents, OMA1-03132), wild-type sAPPβ specific reporter p192 (Elan), and tertiary anti rabbit-HRP (GE Healthcare).

BACE2 enzyme = BACE2 enzyme (Homo sapiens (Human), UniProt Q9Y5Z0); experiment: BACE2 Cell-free Assay (fluorescence polarization, synthetic substrate); type: biochemical; conditions: single determination
Method: This assay measures the inhibition of the BACE2 enzyme as it cleaves a non-native peptide. A synthetic substrate that can be cleaved by BACE2 having N-terminal biotin and made fluorescent by the covalent attachment of Oregon Green at the Cys residue is used to assay BACE2 activity in the presence or absence of the inhibitory compounds. The substrate is Biotin-[…]-C(Oregon green)-KK-OH. The BACE2 enzyme is available from Enzo Life Sciences (Cat # BML-SE550). Compounds are incubated in a ½ log dose response curve from a top concentration of 100 μM with BACE2 enzyme and the biotinylated fluorescent peptide in 384-well black plates (Thermo Scientific #4318). BACE2 is at a final concentration of 2.5 nM with a final concentration of peptide substrate of 150 nM in a reaction volume of 30 μL assay buffer (100 mM Sodium Acetate, pH 4.5 (brought to pH with acetic acid), and 0.001% Tween-20). Plates are covered and incubated for 3 hours at 37° C. The reaction is stopped with the addition of 30 μL of 1.5 μM Streptavidin (Pierce, #21125). After a 10 minute incubation at room temperature, plates are read on a PerkinElmer Envision for fluorescent polarization (Ex485 nm/Em530 nm). The activity of the beta-secretase enzyme is detected by changes in the fluorescence polarization that occur when the substrate is cleaved by the enzyme.

BACE1 enzyme, sequence (P56817 46-457): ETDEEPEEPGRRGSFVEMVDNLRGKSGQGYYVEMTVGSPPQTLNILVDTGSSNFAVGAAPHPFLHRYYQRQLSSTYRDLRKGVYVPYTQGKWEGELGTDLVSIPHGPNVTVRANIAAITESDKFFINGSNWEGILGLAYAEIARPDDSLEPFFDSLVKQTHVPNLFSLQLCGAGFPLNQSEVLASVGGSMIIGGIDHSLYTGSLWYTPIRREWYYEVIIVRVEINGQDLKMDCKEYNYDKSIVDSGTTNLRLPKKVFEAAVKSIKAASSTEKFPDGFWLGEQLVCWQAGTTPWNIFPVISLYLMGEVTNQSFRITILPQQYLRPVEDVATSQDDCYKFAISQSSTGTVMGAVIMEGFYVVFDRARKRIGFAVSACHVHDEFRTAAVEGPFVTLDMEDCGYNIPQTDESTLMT
BACE2 enzyme, sequence (Q9Y5Z0 63-518): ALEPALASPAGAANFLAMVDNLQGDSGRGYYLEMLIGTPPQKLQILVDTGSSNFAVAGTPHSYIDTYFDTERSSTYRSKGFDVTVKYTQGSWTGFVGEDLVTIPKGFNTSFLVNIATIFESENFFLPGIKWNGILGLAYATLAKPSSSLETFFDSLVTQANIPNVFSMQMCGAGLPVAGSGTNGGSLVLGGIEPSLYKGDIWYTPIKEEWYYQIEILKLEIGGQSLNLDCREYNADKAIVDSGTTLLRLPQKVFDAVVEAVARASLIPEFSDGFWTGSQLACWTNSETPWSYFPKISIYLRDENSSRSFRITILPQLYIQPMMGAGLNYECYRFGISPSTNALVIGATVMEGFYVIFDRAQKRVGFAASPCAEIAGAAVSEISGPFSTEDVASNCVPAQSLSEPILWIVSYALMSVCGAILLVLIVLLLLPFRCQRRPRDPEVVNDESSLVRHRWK

With “(4aR,6R,8aS)-8a-(2,4-Difluorophenyl)-6-(5-methyl-1,3,4-oxadiazol-2-yl)-4,4-a,5,6,8,8a-hexahydropyrano[3,4-d][1,3]thiazin-2-amine [Example 17]” the IC50 (BACE1 enzyme) was 301 nM, the IC50 [1] was 10 nM and the IC50 (BACE2 enzyme) was 5560 nM.
